The test system of one test is Alternaria alternata. The experiment in a line: In vitro control of Alternaria alternata on PDA medium. In kind it is cell-based. Conditions: Alternaria alternata from potato, dose 1 L/400 L water, 28-30° C., dark, 7 days. On the procedure: A strain of Alternaria alternata isolated from potato was cultivated in a solid potato dextrose agar (PDA) medium. The efficacy of the mixture of kasugamycin and laminarin in a 1:1 ratio, and each component individually was tested.
The in vitro assessment of the products effectiveness was carried out as per the treatments discussed in Table 4. Accordingly, the components in each treatment were dissolved in PDA culture medium at the dose indicated above. The mixture was homogenized and poured into sterile petri dishes. Explants of 5 mm diameter of Alternaria alternata were placed on the petri dishes with PDA. The dishes were incubated inverted in dark conditions at a temperature of 28-30° C. The evaluation of the inhibition of the fungus was carried out 7 days later.
The present inventors have calculated the Colby value of the synergistic combination as discussed in Example 4 above.

The subject of the next test is Fusarium oxysporum. The experiment in a line: In vitro control of Fusarium oxysporum on PDA medium. The test is classed as cell-based. The settings on record: Fusarium oxysporum from potato, dose 1 L/400 L water, 28-30° C., dark, 7 days. How it is done:
A strain of Fusarium oxysporum isolated from potato was cultivated in a solid potato dextrose agar (PDA) medium. The efficacy of the mixture of kasugamycin and laminarin in a 1:1 ratio, and each component individually was tested.
The in vitro assessment of the products effectiveness was carried out as per the treatments discussed in Table 2. Accordingly, the components in each treatment were dissolved in the PDA culture medium at the dose indicated above. The mixture was homogenized and poured into sterile petri dishes. Explants of 5 mm diameter of the fungus strain Fusarium oxysporum were placed on the petri dishes with PDA. The dishes were incubated inverted, in dark conditions at a temperature of 28-30° C. The evaluation of the inhibition of the fungus was carried out 7 days later.
This effectiveness of all treatments as measured by percent reduction in the Fusarium oxysporum growth, was also evaluated according to Colby's equation as below. […]
If the actual/observed anti-phytopathogenic efficacy of the kasugamycin and laminarin combination against Fusarium oxysporum exceeds the calculated value, then the activity of the combination is super additive, i.e. a synergistic effect exists. In this case, the efficacy which was actually observed must be greater than the value for the expected efficacy (E) calculated from the abovementioned formula.

For `C[C@H]1O[C@H](O[C@H]2[C@H](O)[C@@H](O)[C@@H](O)[C@H](O)[C@@H]2O)[C@@H](N)C[C@@H]1NC(=N)C(=O)O` [Kasugamycin], the “% Observed control” value with Alternaria alternata worked out at 54%; in the test with Fusarium oxysporum, 48%.

Regarding Laminarin, the “% Observed control” value in the test on Alternaria alternata was 30%; with Fusarium oxysporum, 11%.

These data come from US12685313B2, “Agricultural composition comprising kasugamycin” (UPL Corporation Limited, priority 2021, dated 2026).
